The subject of series [1] is bone marrow parent cells of the mouse. In words: CSF-induced proliferation of bone marrow parent cells, in vitro. The format is cell-based. The conditions noted are these: recombinant murine GM-CSF, 7 days. On the procedure: Bone marrow cells are flushed out of the femur of mice. 10^5 cells are incubated in McCoy SA medium (0.3% agar) together with recombinant murine GM-CSF (Genzyme; parent cell colony formation) and the substances (10^-4 to 100 μg/ml) at 37° C. and 7% CO2. 7 days later, the colonies ([…]) and clusters (17-50 cells) are counted.

For series [2], the system named is SW 480. The series can be described thus: Growth inhibition test (MTT) for cytotoxic properties. The format is cell-based, human. As to conditions: Table 1b. The essentials:
(§1)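 IC50 values come from an MTT read at 540 nm (5 h at 37 °C, 5 mg/ml MTT stock), taken on day 3 and day 6. Cells (HT 29, SW 480; 50,000 cells/ml in RPMI/10% FCS) were pre-cultured 1 day, then compound in DMSO was added.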

Series [3] concerns HT 29. The series is described as above. The format is cell-based, human. As to conditions: Table 1b. Put shortly:
as §1

The next series has as its system B 16 F 10. The series is described as above. The format is cell-based, mouse. The conditions noted are these: Table 1b. The essentials:
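Cells in RPMI 1640 with 10% FCS pre-cultured 1 day at 37° C, then exposed to test substances in DMSO; growth checked after day 3 and day 6. Read-out by MTT, 5 h incubation, isopropanol solubilization, extinction at 540 nm.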

A short description of series [4]: Cleavage kinetics with human blood (HPLC). The format is in vitro ADME. As to conditions: Table 2b; 37° C. The text has this:
In Vitro Investigation of the Cleavability of the Glycoconjugates
Cleavage Kinetics With Human Blood

Another series deals with CXF 280. In words: Two-layer soft agar culture of human tumour xenografts. The class given is cell-based. As to conditions: T/C ≤30%. On the procedure:
(§2) The in vitro activity of glycoconjugates of quinolone-a was determined on human tumour xenografts in a two-layer soft agar culture system according to Hamburger and Salmon (Science 197: 461-463).
(§3) The solid tumours were initially grown in the athymic naked mouse (NMRI nu/nu), obtained by surgery and comminuted mechanically. Individual cells were then obtained by incubation in an enzyme mixture of collagenase 0.05%, DNAse 0.07% and hyaluronidase 0.1% in RPMI at 37° C. for 30 minutes. The cells were washed 2× and then passed through a sieve of 200 μm and 20 μm mesh width.
(§4) The base layer comprises 0.2 ml of Iscoves's Modified Dulbeccos Medium with 20% foetal calf serum and 0.7% agar. 40,000 to 200,000 cells in 0.2 ml of the same medium and 0.4% agar were applied to this layer in 24 multiwell plates. The cytostatic substances were added in 0.2 ml of medium.
(§5) The cultures were incubated at 37° C. in a 7% CO2 atmosphere for 6 to 15 days. The colonies which had grown were then counted under an inverting microscope, the living colonies being stained with a tetrazolium chloride dyestuff 24 hours before the evaluation.
(§6) The effect of the active compound is expressed in per cent of surviving colonies compared with the colony count of untreated plates (T/C=colony count treated×100/control count untreated).
(§7) A substance is active if the T/C value is ≤30%.
(§8) This value is shown as the IC70 value in μg/ml in Table 8.

Series [5] has as its system SW 480. The series is described as above. The format is cell-based. As to conditions: T/C ≤30%. The method, then: as §2, §3, §4, §5, §6, §7, §8
Series [6] deals with HT 29. The description is as above. The format is cell-based. The conditions noted are these: T/C ≤30%. On the procedure: as §2, §3, §4, §5, §6, §7, §8
A further series relates to MEXF 989. The description is as above. The class given is cell-based. The conditions noted are these: T/C ≤30%. On the procedure:
as §2, §3, §4, §5, §6, §7, §8

For another series, the system named is LXFL 529. The description is as above. The format is cell-based. The conditions noted are these: T/C ≤30%. The method, then:
as §2, §3, §4, §5, §6, §7, §8

Another series deals with OVXF 1023. The description is as above. The conditions noted are these: T/C ≤30%. The class given is cell-based. On the procedure: as §2, §3, §4, §5, §6, §7, §8
A further series relates to OVXF 899. The series is described as above. The class given is cell-based. The conditions noted are these: T/C ≤30%. On the procedure: as §2, §3, §4, §5, §6, §7, §8
For the next series, the system named is LXFS 538. Described as above. The conditions noted are these: T/C ≤30%. The format is cell-based. On the procedure:
as §2, §3, §4, §5, §6, §7, §8

For series [7], the system named is large-cell lung carcinoma LXFL 529. In words: In vivo inhibition of tumour growth using a naked mouse model. Further details: species or system Athymic naked mice (NMRI nu/nu strain). An excerpt:
Athymic naked mice (NMRI nu/nu strain) were used for all the in vivo experiments for investigation of the inhibition of tumour growth. The large-cell lung carcinoma LXFL 529 selected was developed by serial passage in naked mice.
The tumour was implanted subcutaneously in both flanks of nu/nu naked mice 6 to 8 weeks old. Treatment was started, regardless of the doubling time, as soon as the tumours had reached a diameter of 5-7 mm. The mice were allocated to the treatment group and the control group (5 mice per group with 8-10 evaluable tumours) by randomization. The individual tumours of the control group all grew progressively.
The size of the tumours was measured in two dimensions by means of a sliding gauge. The tumour volume, which correlates well with the cell count, was then used for all the evaluations. The volume was calculated according to the equation "length×breadth×breadth/2" ([a×b^2 ]/2, a and b represent two diameters at right angles). The values of the relative tumour volume (RTV) were calculated for each individual tumour by dividing the tumour size on day X with the tumour size on day 0 (at the time of randomization). The mean RTV values were then used for the further evaluation.
The inhibition of the increase in the tumour volume (tumor volume of the test group/control group, T/C, in per cent) was the concluding measurement value.
All the compounds were administered according to an intermittent plan in each case on day 1, 5 and 9. Furthermore, all the compounds were administered intraperitoneally (i.p.) using water as the solvent.

The subject of another series is tumour cell lines. In words: Growth inhibition test, carbohydrate-free comparison compounds (cell line not stated). The class given is cell-based. On the procedure: The human colon cell lines SW 480 and HT 29 (ATCC no. CCL 228 and HBT-38) and the mouse melanoma cell line B 16 F 10 were cultured in Roux dishes in RPMI 1640 medium with addition of 10% FCS. The cultures were then trypsinized and taken up in RPMI plus 10% FCS to a cell count of 50,000 cells/ml. 100 μl of cell suspension/well were introduced into a 96 microwell plate and incubated for 1 day at 37° C. in a CO2 incubating cabinet. A further 100 μl of RPMI medium and 1 μl of dimethyl sulphoxide with the test substances were then added. The growth was checked after day 3 and day 6. 40 μl of MTT solution (3-(4,5-dimethylthiazol-2-yl)-2,5-diphenyltetrazoline bromide) with an initial concentration of 5 mg/ml of H2 O were added to each microwave. The plate was incubated for 5 hours in a CO2 incubating cabinet at 37° C. The medium was then sucked off and 100 μl of i-propanol/well were added. After shaking for 30 minutes with 100 μl of H2 O, the extinction was measured at 540 nm with a Titertek Multiskan MCC/340 (Flow).

≈ marks a conversion by molar mass, not a printed value. Where “and” joins values, the source holds several entries; their conditions need not be identical. Identical values can stand only once.

From patent US6271342A, “Sugar-modified cytostatics” (Bayer Aktiengesellschaft, priority 1995, dated 2001) come the findings set out here.

Protocol for SW-480: Cleavage Kinetics With Cells
(§9) 2.25 ml of PBS are incubated together with 225 μl of a cell suspension (30 mg/ml) and 25 μl of substrate stock solution (1 mg/ml in 3% dimethyl sulphoxide in PBS) at 37° C. After 1 hour and 24 hours, samples of in each case 1 ml are taken, mixed with 1 ml of ethanol and left to stand at 4° C. for 20 minutes. After centrifugation (5 minutes at 3500 rpm), 100 μl of supernatant are taken for the HPLC analysis.
Protocol for hepatoma: Cleavage Kinetics With Cells
as §9

As a reminder, the IC50 is the concentration needed to halve the response being measured. A high value points to lower potency. On to `COC1C(O)C(C)OC(Oc2ccc(NC(=S)NCCCCC(NC(=S)Nc3ccc(OC4OC(C)C(O)C(OC)C4O)cc3)C(=O)NC3C=CCC4CN(c5c(F)cc6c(=O)c(C(=O)O)cn(C7CC7)c6c5Cl)CC43)cc2)C1O` (mixture of isomers) [Example 11.7, N-{N^α,N^ε -Bis-[O-(3--methyl-β-L-fucosyl)-4-hydroxy-phenylamino-thiocarbonyl]-D -lysyl}-quinolone-a], for which the “IC50 [μg/ml] CSF-induced proliferation of bone marrow parent cells of the mouse” value (shortened to “IC50 [μg/ml] CSF-induced proliferation”) in series [1] is 2.9 µg/mL. The “% cleavage in SW-480 1 hour” value in the series with SW-480 was 0%. Also, the “% cleavage in SW-480 24 hours” value in the series with SW-480 is 0%. Moreover, in the series with hepatoma, the “% cleavage in hepatoma 1 hour” value was 0%. The “% cleavage in hepatoma 24 hours” value with hepatoma was 0%. For the same molecule, the IC50 in the series with SW 480 [2] is 12 µM; in the series with HT 29 [3], 13 µM; in the series on B 16 F 10, 15 µM. For the same molecule, the “% cleavage in human blood 1 hour” value in series [4] was found to be 0%. Besides, the “% cleavage in human blood 24 hours” value in series [4] was determined as 0%. Also, the “IC70 /μg/ml” value in the series with CXF 280 was more than 100 µg/mL; in the series on SW 480 [5], 18 µg/mL; in the series on HT 29 [6], 56 µg/mL; in the series on MEXF 989 it was 3 µg/mL; in the series with LXFL 529, 4 µg/mL; in the series with OVXF 1023, 136 µg/mL. In addition, the entries for the “IC70 /μg/ml” value in the series with OVXF 899 and in the series with LXFS 538 were 234 µg/mL and 18 µg/mL, respectively.
In the case of `CC1OC(Oc2ccc(NC(=S)NC(CCCCN)C(=O)NC3C=CCC4CN(c5c(F)cc6c(=O)c(C(=O)[O-])cn(C7CC7)c6c5Cl)CC43)cc2)C(O)C(OCC(=O)[O-])C1O.[Na+].[Na+]` (mixture of isomers) [Example 12.6, N-{N^α -[O-(3-O-Carboxymethyl-β-L-fucosyl)-4-hydroxy-phenylamino-thiocarbonyl]-lysyl}-quinolone-a, di-sodium salt], the “IC50 [μg/ml] CSF-induced proliferation” value in [1] is 0.3 µg/mL. Also, the “Dose [mg/kg/day], maximum tolerated dose (MTD)” value in series [7] (i.p. in water on day 1, 5 and 9) was found to be 100 mg/kg/day. Further, the “Survival time” value in series [7] (individual mice, treated at MTD i.p. on day 1, 5 and 9, di-sodium salt) is 23 days and > 26 days and 26 days. Moreover, in [7] (on day 19, treated at MTD i.p. on day 1, 5 and 9), the “Relative tumour volume [% of day 0]” value is on record as 300.7 % of day 0. For the same molecule, the “Optimum T/C” value in series [7] (on day 19, tumour volume of test group/control group) stood at 19.4%. Besides, the IC50 in the series on SW 480 [2] turned out to be 4 µM; in the series with HT 29 [3], 7 µM; with B 16 F 10, 0.3 µM.
In the case of `CO[C@H]1[C@H](O)[C@@H](Oc2ccc(NC(=S)N[C@H](C)C(=O)NC3C=CCC4CN(c5c(F)cc6c(=O)c(C(=O)O)cn(C7CC7)c6c5Cl)CC43)cc2)O[C@@H](C)[C@H]1O` (stereo partly drawn) [Example 12.1, N-{N'-[O-(3-O-Methyl-β-L-fucosyl)-4hydroxy-phenylamino-thiocarbonyl]-D -alanyl}-quinolone-a], the “IC50 [μg/ml] CSF-induced proliferation” value in [1] is 0.21 µg/mL. The “% cleavage in SW-480 1 hour” value in the series on SW-480 worked out at 0%. Also, the “% cleavage in SW-480 24 hours” value in the series on SW-480 is listed as 0%. Moreover, the “% cleavage in hepatoma 1 hour” value in the series with hepatoma is on record as 0%. The “% cleavage in hepatoma 24 hours” value with hepatoma is given as 0%. For the same molecule, the IC50 in the series on SW 480 [2] is 1 µM; in the series on HT 29 [3], 1.5 µM; in the series with B 16 F 10, 0.1 µM. Moreover, the “% cleavage in human blood 1 hour” value in [4] was 0%. In series [4], the “% cleavage in human blood 24 hours” value was 0%. Further, the “IC70 /μg/ml” value is 70 µg/mL (≈ 87.5 µM) in the series with CXF 280; 8 µg/mL (≈ 10 µM) with SW 480 [5]; 6 µg/mL (≈ 7.5 µM) in the series on HT 29 [6]; less than 0.3 µg/mL in the series with MEXF 989; 0.9 µg/mL (≈ 1.12 µM) in the series with LXFL 529; 12 µg/mL (≈ 15 µM) in the series with OVXF 1023. Also, the “IC70 /μg/ml” value in the series on OVXF 899 was found to be 45 µg/mL (≈ 56.2 µM); with LXFS 538, 0.4 µg/mL (≈ 0.5 µM).
As to “N-[N^α,N^ε -bis-(4-hydroxyphenylamino-thiocarbonyl)-lysyl-D-alanyl]-batracyline”, the IC50 in the series on tumour cell lines is more than 250 µM.
On the same count and under the same terms, then “N-[N^α,N^ε -bis-(4-hydroxyphenylamino-thiocarbonyl)-lysyl]-batracyline”, with more than 250 µM.
